These results are taken from patent US8778948B2, “Substituted phenylpiperazinyl aralkylalcohol derivatives, pharmaceutical compositions containing such derivatives and uses thereof” (priority 2008, dated 2014).

“Also recorded” adds a separate entry of the source. Marks after values point to notes of the source that are not given here. Bounds are passed on as bounds.

Data set [1] addresses opioid receptor subtype δ (Homo sapiens, UniProt P41143). Briefly: Competitive radioligand binding ([3H]Diprenorphine), opioid receptor subtype δ. Conditions: for inhibition at 10 µM: read-out: Inhibition percentage of competitive binding, δ. As for the experimental part:
(§1) Competitive Binding Between the Compounds and Opioid Receptor Subtypes μ, δ, κ
(§2) The respective test compounds were added to the sample tube (final concentration of 10^−5M), incubated at 37° C. for 30 min and placed in ice bath to terminate the reaction. The reaction mixture was filtered through GF/C(Whatman) glass fiber filter by vacuum filtration on a Millipore sample collector. The filter was washed three times with 50 mM Tris-HCl (pH7.4), each with 4 ml; dried and transferred into a 0.5 ml Eppendorf tube, in which 0.5 ml lipophilic scintillation fluid was added. Radioactivity was detected by a LS6500 scintillation counter. Each concentration had three duplicate test tubes and each separate test was repeated 3 to 4 times.
(§3) Specific binding CMP value for each sample tube=overall binding CPM value for each sample tube-CPM value of non-specific binding tube. [Inhibition percentage of competitive binding between the test compound and different opioid receptor subtypes (%)=(100%−specific binding (CPM value) of sample tube/specific binding (CPM value) of solvent group×100%)]
Average was taken for each test drug from three duplicate tubes; each test was repeated two or more times. Data were presented as mean±SE and statistical comparison was made by ANOVA.

Data set [2] relates to Kunming mice. The data set is described as follows: Hot-plate test in mice. The format is in vivo. The note with it: 1 h post dose, hot plate 55° C. How it is done:
Kunming mice, SPF KM mice were purchased from […] SLAC LABORATORY ANIMAL CO. LTD and kept in normal environment.
(§4) 2. Modes of Administration
The compounds were dissolved in water for injection at a concentration of 4 mg/ml, 2 mg/ml and 1 mg/ml and were given subcutaneously to animals.
(§5) Three different doses (10, 20, and 40 mg/kg) were administered to the test groups.
Morphine was used as a positive control and hot plate test was used.
30-40 mice (half male and half female) weighing 18-23 g were used. First, each mouse was placed on a hot plat at 55° C. to determine basic pain threshold for 2-3 times. Those animals with basic pain threshold of 5-30 s were qualified, unqualified mice were not used. 30 qualified mice were divided into five groups, including negative control group, positive control group, low-dose group, medium-dose group and high-dose group:
Mice in test groups received test sample solution (10 mg/kg, 20 mg/kg, 40 mg/kg) via subcutaneous injection in the neck. Positive control group received subcutaneous injection of morphine (2 mg/kg). One hour later, pain threshold values were determined for mice in each group as post-drug pain threshold. Percentage increase in pain threshold was calculated according to the following equation: […]

For data set [3], the system named is Kunming mice. Briefly: Acetic acid-induced abdominal writhing test in mice. The format is in vivo. Conditions: 1 h before 0.7% acetic acid i.p. How it is done: Acetic Acid-Induced Abdominal Writhing Test in Mice
Kunming mice, SPF KM mice purchased from […] SLAC LABORATORY ANIMAL CO. LTD and kept in normal environment.
as §4
The compounds were dissolved in water for injection at a concentration of 4 mg/ml, 2 mg/ml and 1 mg/ml and were given intragastrically to animals.
as §5
Aspirin was used as a positive control and acetic acid writhing test was used.
30 mice (half male and half female) weighing 18-23 g were divided into five groups, including negative control group, positive control group, low dose group, medium dose group and high dose group:
Mice in test group received test drug (10 mg/kg, 20 mg/kg, 40 mg/kg) via intragastric administration. Negative control group received physiological saline (20 ml/kg) via oral administration. Positive control group received aspirin (200 mg/kg) via oral administration. One hour later, each group received 0.7% acetic acid 10 ml/kg intraperitoneally. Five minutes later, the number of writhes was counted within the subsequent 15 min period; inhibition percentage of writhing response in each test group was calculated by the following equation: […]

The nature of another data set: in vivo. The note with it: mouse, po, mice. An excerpt: Studies of Acute Toxicity of the Compound I-1 and I-20
For statistics of 1-20, Bliss method was used (“Experimental Design and Statistical Basis for Drug Evaluation”, Changxiao Liu, Ruiyuan Su, first edition, Military Medical Science Press, 1993, 80-90).

The target of data set [4] is opioid receptor subtype μ (Homo sapiens, UniProt P35372). Briefly: biochemical. Format: binding. Conditions: for inhibition at 10 µM: test concentration 10^−5 mol/L, [3H]Diprenorphine 0.4 nM, mean±SE, read-out: Inhibition percentage of competitive binding, μ. How it is done: as §1, §2, §3
(§6) Average was taken for each test drug from three duplicate tubes; each test was repeated two or more times.

Data set [5] has as its target opioid receptor subtype κ (Homo sapiens, UniProt P41145). Briefly: biochemical. The note with it: for inhibition at 10 µM: test concentration 10^−5 mol/L, [3H]Diprenorphine 0.4 nM, mean±SE, read-out: Inhibition percentage of competitive binding, κ. Format: binding. How it is done:
as §1, §2, §3, §6

A short description of data set [6]: Animal model study of compound I-20 (summary statements).
For data set [7], the system named is Salmonella typhimurium histidine auxotroph mutants TA97, TA98, TA100 and TA102. Format: cell-based. As for the experimental part:
Bacterial Reverse Mutation Test on I-20
Bacterial reverse mutation test on compound I-20 was performed on Salmonella typhimurium histidine auxotroph mutants TA97, TA98, TA100 and TA102 (purchased from MolTox company) using conventional procedures of Ames test.
Observation period: colony counting was done 48 hours after cultivation at 37° C.
Drug solutions with different concentrations were prepared with double distilled water, and the doses were 5, 50, 500, 1000, 5000 μg/plate.
Direct effect of the test drug in the absence of metabolic activity was determined by standard plate incorporation assay. The composition of the test top layer was: 2.0 ml top layer, 0.1 ml drug solution, 0.1 ml bacteria solution and 0.5 ml phosphate buffer.
Pre-incubation was used in the determination of the drug's mutagenic effect in the presence of metabolic activity. The composition of the test top layer is: 2.0 ml top layer, 0.1 ml drug solution, 0.1 ml bacteria solution and 0.5 ml S9 mix.
The resulting drug solution, bacterial solution and S9 mix were first incubated at 35° C. for 30 min while shaking, and then tested according to standard plate incorporation assay. Each dose was tested in three plates, each mutant was tested in the absence or presence of metabolic activity (−S9 or +S9) and repeated twice, the number of revertant colonies was calculated as x±SD.
Results: the test included two parts, −S9 and +S9. […] Other doses had no bacteristatic effect to all strains, and the background growth was good.

Chain of opioid receptor subtype κ (P41145 whole entry): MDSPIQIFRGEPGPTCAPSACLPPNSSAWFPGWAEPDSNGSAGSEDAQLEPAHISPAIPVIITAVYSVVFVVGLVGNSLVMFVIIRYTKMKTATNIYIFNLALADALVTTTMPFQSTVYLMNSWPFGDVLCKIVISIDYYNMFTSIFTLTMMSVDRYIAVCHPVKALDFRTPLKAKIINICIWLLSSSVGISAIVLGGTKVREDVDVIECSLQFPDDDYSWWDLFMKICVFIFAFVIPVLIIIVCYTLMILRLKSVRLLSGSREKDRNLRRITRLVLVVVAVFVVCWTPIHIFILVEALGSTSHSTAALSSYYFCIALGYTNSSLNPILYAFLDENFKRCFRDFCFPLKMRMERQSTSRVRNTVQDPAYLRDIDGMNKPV
Chain of opioid receptor subtype δ (P41143 whole entry): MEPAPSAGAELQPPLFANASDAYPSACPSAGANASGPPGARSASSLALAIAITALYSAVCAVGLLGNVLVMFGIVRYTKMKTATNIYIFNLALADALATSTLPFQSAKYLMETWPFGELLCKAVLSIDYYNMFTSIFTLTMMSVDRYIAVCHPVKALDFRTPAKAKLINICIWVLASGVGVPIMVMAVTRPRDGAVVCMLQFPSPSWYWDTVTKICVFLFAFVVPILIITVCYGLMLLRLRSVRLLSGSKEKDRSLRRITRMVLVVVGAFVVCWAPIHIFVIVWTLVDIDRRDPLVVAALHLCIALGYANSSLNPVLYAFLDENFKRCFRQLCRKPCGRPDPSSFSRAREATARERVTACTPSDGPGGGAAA
Chain of opioid receptor subtype μ (P35372 whole entry): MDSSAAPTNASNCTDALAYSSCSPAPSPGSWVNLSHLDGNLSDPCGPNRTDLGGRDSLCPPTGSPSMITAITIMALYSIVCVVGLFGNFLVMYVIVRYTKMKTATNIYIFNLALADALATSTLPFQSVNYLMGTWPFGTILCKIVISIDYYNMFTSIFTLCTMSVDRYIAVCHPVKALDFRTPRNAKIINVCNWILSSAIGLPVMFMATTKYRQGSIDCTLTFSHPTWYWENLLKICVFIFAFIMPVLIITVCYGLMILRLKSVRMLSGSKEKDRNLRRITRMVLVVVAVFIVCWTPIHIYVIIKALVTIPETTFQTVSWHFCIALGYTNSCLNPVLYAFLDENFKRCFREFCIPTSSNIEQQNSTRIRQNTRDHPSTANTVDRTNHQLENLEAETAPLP

`C[C@@H]([C@H](O)c1ccccc1)N1CCN(c2cccc(C(F)(F)F)c2)CC1` (racemic) [Compound I-1, (1RS,2SR)-1-phenyl-2-(4-(3-trifluoromethylphenyl)piperazinyl)-propan-1-ol]: the results for the inhibition at 10 µM in data set [1], in data set [4] and in data set [5] were 0%, 22.7 ± 2.2% and 2.7 ± 0.9%, respectively. In addition, the “Percentage increase in pain threshold” value is reported as 4.53% with Kunming mice [2] (10 mg/kg S.c.), 11.7% with Kunming mice [2] (20 mg/kg S.c.) and 89.62 ** % with Kunming mice [2] (40 mg/kg S.c.). Further, the “Inhibition percentage of writhing response” value is listed as 64.38 * % in the data set with Kunming mice [3] (10 mg/kg Ig), 68.13 * % in the data set on Kunming mice [3] (20 mg/kg Ig) and 83.13 ** % with Kunming mice [3] (40 mg/kg Ig). In addition, in “in vivo”, the LD50 (commonly the dose expected to kill half of the subjects tested) was more than 2000 mg/kg.
For the compound `COc1ccccc1N1CCN([C@H](C)[C@H](O)c2ccccc2)CC1` (racemic) [Compound I-20, (1RS,2RS)-1-phenyl-2-(4-(2-methoxyphenyl)piperazinyl)-propan-1-ol], in data set [1], the “Affinity to opioid receptor subtype δ (in words)” value is listed as “no obvious affinity”. Besides, the inhibition (as a rule, the share of the control response that was lost under treatment) at 10 µM in data set [1] stood at 0%; in data set [4] it was 13.4 ± 2.1%; in data set [5] it was 8.9 ± 0.2%. In addition, the “Analgesic effect (in words)” value in data set [6] (animal model study) is listed as “obvious analgesic effect”. For the same compound, the “Potential for drug dependence” value in data set [6] (in vivo) is “low potential for drug dependence”. In addition, the “Drug resistance after multiple applications” value in data set [6] (multiple applications) was “No drug resistance is observed”. Moreover, the “Absorption with oral administration (in words)” value in data set [6] (oral administration) is “well absorbed; also recorded: good absorption”. Also, the “Percentage increase in pain threshold” value in the data set with Kunming mice [2] (10 mg/kg S.c.) is given as 63.29 * %; in the data set on Kunming mice [2] (20 mg/kg S.c.), 80.88 * %; in the data set with Kunming mice [2] (40 mg/kg S.c.) it was 186.25 ** %. In addition, the “Inhibition percentage of writhing response” value was 46.61% in the data set with Kunming mice [3] (10 mg/kg Ig), 72.03 * % in the data set on Kunming mice [3] (20 mg/kg Ig) and 64.41% in the data set with Kunming mice [3] (40 mg/kg Ig). The Ames test result in data set [7] (TA97, TA98, TA100, TA102, −S9 and +S9, 5-5000 μg/plate) was “negative”. Moreover, in data set [7] (TA98 in −S9 test system and TA97 in +S9 test system), the “Bacteristatic effect on test strains” value was “bacteristatic effects”. For the same compound, in data set [7] (−S9 and +S9, 5, 50, 500, 1000, 5000 μg/plate), the “Increase in the number of revertant colonies” value is on record as “None of the tested dose resulted in significant increase”. This compound also yielded an LD50 in the data set “in vivo” of 674 mg/kg. The “Affinity to opioid receptor subtype μ (in words)” value in data set [4] was “no obvious affinity”. For the same compound, in data set [5], the “Affinity to opioid receptor subtype κ (in words)” value is listed as “no obvious affinity”.
